Laboratory results from US5534533A, “Carboxylate derivatives exhibiting phospholipase A2 inhibitory activity” (Shionogi & Co., Ltd., priority 1993, dated 1996).

Experiments:
[1] = molecular target: T1, Human secretory PLA2 (Homo sapiens, UniProt P14555); assay: Secretory PLA2 inhibitory activity (diheptanoyl thio PC substrate, absorbance at 405 nm); type: biochemical; conditions: diheptanoyl thio PC 1 mM, Triton X100 0.3 mM, pH 7.3, CaCl2 10 mM, 30 minutes, read-out: s-PLA2 Inhibition IC50
T1 sequence (P14555 21-144): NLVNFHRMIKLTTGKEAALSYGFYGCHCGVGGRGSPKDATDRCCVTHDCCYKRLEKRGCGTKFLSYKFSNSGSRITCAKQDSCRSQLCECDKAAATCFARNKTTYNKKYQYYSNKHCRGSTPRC
Outline: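 Diheptanoyl thio-PC (1 mM) with Triton X100 (0.3 mM) and DTNB (125 μM) in Tris 25 mM pH 7.3, CaCl2 10 mM, KCl 100 mM, BSA 1.0 mg/ml. Absorbance change at 405 nm read at 30 min; percent inhibition corrected for no-enzyme blanks, IC50 from log-concentration plot.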

[2] = molecular target: T2, intracellular PLA2 (cytosolic PLA2, cPLA2) (Homo sapiens, UniProt P47712); assay: Intracellular PLA2 (cPLA2) inhibitory activity (14C-arachidonyl phosphatidylcholine substrate); type: biochemical; conditions: 2 μM radiolabelled phosphatidylcholine, 1 μM dioleoylglycerol, 1 mM CaCl2, pH 7.4; read-out: c-PLA2 Inhibition IC50
T2 sequence (P47712 1-749): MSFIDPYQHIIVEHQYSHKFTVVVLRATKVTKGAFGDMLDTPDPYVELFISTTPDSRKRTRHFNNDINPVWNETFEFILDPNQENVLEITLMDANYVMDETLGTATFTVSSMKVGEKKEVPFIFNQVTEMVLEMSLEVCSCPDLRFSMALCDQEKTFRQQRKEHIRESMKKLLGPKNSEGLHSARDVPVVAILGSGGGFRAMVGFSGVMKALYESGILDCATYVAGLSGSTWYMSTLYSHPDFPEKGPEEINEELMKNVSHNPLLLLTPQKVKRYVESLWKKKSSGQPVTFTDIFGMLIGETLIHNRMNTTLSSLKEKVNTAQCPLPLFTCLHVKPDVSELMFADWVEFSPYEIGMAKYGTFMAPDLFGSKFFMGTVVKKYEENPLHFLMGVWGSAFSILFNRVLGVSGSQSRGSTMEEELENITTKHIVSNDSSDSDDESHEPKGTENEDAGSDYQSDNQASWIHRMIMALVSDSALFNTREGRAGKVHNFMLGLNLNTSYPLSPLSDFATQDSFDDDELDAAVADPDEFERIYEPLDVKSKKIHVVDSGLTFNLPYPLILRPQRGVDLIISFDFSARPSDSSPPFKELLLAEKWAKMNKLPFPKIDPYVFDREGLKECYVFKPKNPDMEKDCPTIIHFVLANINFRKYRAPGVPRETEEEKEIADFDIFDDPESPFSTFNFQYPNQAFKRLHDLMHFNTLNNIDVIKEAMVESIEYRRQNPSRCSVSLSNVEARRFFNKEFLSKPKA
Outline: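 Sonicated vesicles carrying 2 μM 1-palmitoyl-2-[14C]arachidonyl-phosphatidylcholine with 1 μM dioleoylglycerol served as substrate. Buffer: 50 mM Hepes pH 7.4, 150 mM NaCl, 1 mM CaCl2, 2 mM DTT, 0.1 mg/ml BSA. IC50 values were derived.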

[3] = test system: adjuvant arthritis; assay: Adjuvant arthritis in rats (Mycobacterium butyricum), foot edema volume; type: in vivo, Crj/LEW male rat; conditions: rat, 10 mg/kg P.O. daily, 17-18 days after adjuvant; *P < 0.05 (Examples 1, 69), **P < 0.01 (Examples 2, 23, 25) to vehicle control; Example 29 unmarked
Method: Adjuvant arthritis was induced by subcutaneously administering a suspension of 0.5 mg of Mycobacterium butyricum (Difco) in 0.05 ml of liquid paraffin to the pad of left foot of Crj/LEW male rat of 7-8 weeks age weighing 150-170 g. After administering the adjuvant, the volume of edema of both feet was daily measured by a plethysmometer. The adjuvant had been administered, and since the following day, a suspension of the test compound in 0.6% arabic gum was orally administered every day, and 17-18 days after administering the adjuvant, the volume of edema of the foot and that of foot to which no adjuvant had been administered were compared with each other. Volume of the edema in control group was defined as 100%, which value was obtained by subtracting the volume of foot of normal rat (1.2 ml) from the volume measured, and inhibitory percent obtained by using the inhibitor was defined as inhibitory rate. Using the inhibitory rate, effectiveness was determined by Student's-t assay.

Row | IC50 [1] [µM] | IC50 [2] [µM] | Compound | Inhibition % (To Nontreated Foot), edema volume [3] [%]
1 | 21 | 20 | COc1c(C)c(OC(=O)c2c(C)c(C)c(OCCCOc3ccc(C(F)(F)F)cc3)c(C)c2OC)c(C)c(C)c1C(=O)O [Example 1, 4-[4-[3-(4-Trifluoromethylphenoxy)propyloxy]-2-methoxy-3,5,6-trimethylphenylcarboxy]-2-methoxy-3,5,6-trimethylbenzoic acid] | 43.4
2 | 18 | 9 | COc1c(C)c(OC(=O)c2c(C)c(C)c(OCCCOc3ccc(F)cc3)c(C)c2OC)c(C)c(C)c1C(=O)O [Example 2, 4-[4-[3-(4-Fluorophenoxy)propyloxy]-2-methoxy-3,5,6-trimethylphenylcarboxy]-2-methoxy-3,5,6-trimethylbenzoic acid] | 52.3
3 | 9.4 | 4 | COc1c(C)c(OC(=O)c2c(C)c(C)c(OCCCOc3ccc(Cl)cc3)c(C)c2OC)c(C)c(C)c1C(=O)O [Example 23, 4-{4-[3-(4-Chlorophenoxy)propoxy]-2-methoxy-3,5,6-trimethylbenzoyloxy}-2-methoxy-3,5,6-trimethylbenzoic Acid] | 66.0
4 | 4.6 | 13 | COc1c(C)c(OC(=O)c2c(C)c(C)c(OCCCOc3ccc(Br)cc3)c(C)c2OC)c(C)c(C)c1C(=O)O [Example 25, 4-{4-[3-(4-Bromophenoxy)propoxy]-2-methoxy-3,5,6-trimethylbenzoyloxy}-2-methoxy-3,5,6-trimethylbenzoic Acid] | 66.0
5 | 12 | 8.5 | COc1c(C)c(OC(=O)c2c(C)c(C)c(OCCCOc3ccc(C)cc3)c(C)c2OC)c(C)c(C)c1C(=O)O [Example 29, 4-{4-[3-(4-Methylphenoxy)propoxy]-2-methoxy-3,5,6-trimethylbenzoyloxy}-2-methoxy-3,5,6-trimethylbenzoic Acid] | 33.1
6 | 12 | 36 | COc1c(C)c(OC(=O)c2c(C)c(C)c(OCCCN3CCN(c4ccc(F)cc4)CC3)c(C)c2OC)c(C)c(C)c1C(=O)O [Example 69, 4-{4-[3-(4-(4-Fluorophenyl)piperazin-1-yl)propoxy]-2-methoxy-3,5,6-trimethylbenzoyloxy}-2-methoxy-3,5,6-trimethylbenzoic Acid] | 24.6
